This data set is described as follows: Cell number (propidium iodide). The class given is cell-based. The settings on record: neonatal rat cardiomyocytes; rat cardiomyocytes (CM), 24 HR exposure; read-out: Cell Number TC50. As for the experimental part:
One test compound (Compound A) was received as dry powder and evaluated for potential cytotoxicity in a battery of in vitro assays. The compound was tested using both rat cardiomyocytes (CM) from rat neonates and a rat hepatoma (H4IIE) cell line. […] Camptothecin and rotenone were included as positive control compounds. The cell supernatant or the cells themselves were harvested for biochemical analysis. General cytotoxicity was evaluated by monitoring membrane integrity, mitochondrial function, cell proliferation, oxidative stress, and apoptosis. In addition, interaction with P-glycoprotein (PgP) on H4IIE cells and solubility of the test compound were also assessed. The means of each exposure group (n=3-7) were calculated for each assay performed. Intra assay variation well-to-well was typically less than 10% with plate to plate variation typically less than 20%.
Cell Proliferation: Cell proliferation in each well was measured with propidium iodide (PI). […] The 15 nm shift enhances PI fluorescence approximately 20 times while the excitation maxima are shifted 30-40 nm. During method development experiments, it was determined that Triton-X-100 was the best solution to permeabilize the H4IIE cells thereby allowing the PI access to intracellular RNA and DNA. Fluorescence was measured using a Packard Fusion plate reader or equivalent reader at 540 nm excitation and 610 nm emission. […]

`CC[C@@]1(O)C(=O)OCc2c1cc1n(c2=O)Cc2cc3ccccc3nc2-1` [CAMPTOTHECIN, Camptothecin]: the CC50 at 24 h stood at 293 µM.

The record behind these values is US7615361B2, “Toxicity screening methods” (Ceetox, Inc., priority 2006, dated 2009).
